Columns and labels:
PDL1/PD1 = PDL1/PD1 (Homo sapiens (Human), UniProt Q9NZQ7); test: PDL1/PD1 Binding Assay; conditions: PDL1-6xHis 0.3 nM, PD1-Fc-Avi-Biotin 2.5 nM, Acceptor/Donor beads; read-out: PD-1/PD-L1 PPI IC50
Procedure: Compounds to be tested were serially diluted in DMSO, and further diluted in assay buffer (25 mM Hepes pH 7.4, 150 mM NaCl, 0.005% Tween 20, BSA 0.01%). Diluted compounds were added to the wells with final concentration of DMSO at 1%. PDL1-6×His protein was added to the wells, mixed well with compound. The plates were incubated for 30 min at room temperature. PD1-Fc-Avi-Biotin protein was added to the wells. Final concentration of PDL1 and PD1 protein is 0.3 nM and 2.5 nM, respectively. After a binding time of 30 min at room temperature, Anti-6×His Acceptor beads (final concentration 20 ug/ml) were added to the wells, and the incubation continued for 1 h. Streptavidin Donor beads (final concentration 20 ug/mL) were added at reduced light. The plates were sealed with foil and incubated in the dark for additional 1 h or overnight before reading on an Envision reader. The IC50 values were determined by fitting the curves using a four-parameter equation in Graphpad Prism 8.

PD-1/PD-L1 interaction = PD-1/PD-L1 interaction (Homo sapiens (Human), UniProt Q9NZQ7); test: PD-1/PD-L1 NFAT Reporter Assay (Jurkat T cells / PD-L1 expressing CHO cells co-culture); format: cell-based; conditions: for Emax: Jurkat, maximum NFAT-activation level relative to the positive control (10 nM Atezolizumab); for EC50: co-culture 6 hrs at 37° C., luciferase
PD-1/PD-L1 interaction, sequence (Q9NZQ7 19-290): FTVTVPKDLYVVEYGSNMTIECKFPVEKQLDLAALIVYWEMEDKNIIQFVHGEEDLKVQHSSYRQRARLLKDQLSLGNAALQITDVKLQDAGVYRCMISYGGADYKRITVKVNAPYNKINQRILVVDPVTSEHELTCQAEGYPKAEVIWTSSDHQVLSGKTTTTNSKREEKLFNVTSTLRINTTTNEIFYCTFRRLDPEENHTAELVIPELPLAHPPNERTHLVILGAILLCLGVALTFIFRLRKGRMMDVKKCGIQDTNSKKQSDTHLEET
Procedure: Blocking the PD-1/PD-L1 interaction will release the inhibitory signal and results in TCR signaling and NFAT-mediated luciferase activity.
CHO cells expressing surface-bound anti-CD3 antibodies and PD-L1 were first seeded overnight and treated with the compounds. Jurkat cells overexpressing PD-1 and a luciferase construct under NF-AT promoter were then immediately seeded on the monolayer of CHO cells. The co-culture was then incubated for 6 hrs at 37° C. Luciferase activity was assessed by adding the ONE-Glo reagent and measuring luminescence with a plate reader. EC50s values were determined from the fit of the dose-response curves Emax (%) corresponds to the maximum NFAT-activation level reached by a given compound relative to the positive control (10 nM Atezolizumab).

PDL1/PD1, sequence (Q9NZQ7 19-238): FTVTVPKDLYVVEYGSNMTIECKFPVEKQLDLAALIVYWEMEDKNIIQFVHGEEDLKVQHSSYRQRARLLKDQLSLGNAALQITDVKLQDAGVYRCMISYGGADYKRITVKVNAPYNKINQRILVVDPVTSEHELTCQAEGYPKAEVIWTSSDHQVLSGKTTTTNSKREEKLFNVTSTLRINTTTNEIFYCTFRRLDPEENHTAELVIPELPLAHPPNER

Compound	IC50 (PDL1/PD1) [nM]	Emax (PD-1/PD-L1 interaction) [%]	EC50 (PD-1/PD-L1 interaction) [nM]
CCOC(=O)CN[C@H]1CCc2cc(-c3cccc(-c4cccc(-c5cnc(CN6CC7(CCC(=O)N7)C6)c(OC)n5)c4Cl)c3Cl)cc(OC)c21 [Compound A-1]	≤ 10	33	
COc1cc(-c2cccc(-c3cccc(-c4cnc(CN5CC6(CCC(=O)N6)C5)c(OC)n4)c3Cl)c2Cl)cc2c1[C@@H](N1CC(C(=O)O)C1)CC2 (single isomer, unassigned) [Compound B-3]	≤ 10	112	100 to 1000
CCOc1nc(-c2cccc(-c3cccc(-c4cnc(CN5CC6(CCC(=O)N6)C5)c(OC)n4)c3Cl)c2Cl)cc2c1C(NC[C@@H]1CCC(=O)N1)CC2 (stereo partly shown) [Compound C-12]	≤ 10		10 to 100
CCOC(=O)C1CN([C@H]2CCc3cc(-c4cccc(-c5cccc(-c6cnc(CN7CC(OC)C7)c(OC)n6)c5Cl)c4Cl)nc(OC)c32)C1 (single isomer, unassigned) [Compound G-5]	≤ 10		10 to 100
CCOC(=O)C1CN([C@H]2CCc3cc(-c4cccc(-c5cccc(-c6cnc(CN7C[C@@H](O)[C@@H]7C)c(OC)n6)c5Cl)c4Cl)nc(OC)c32)C1 (single isomer, unassigned) [Compound G-3]			> 10000
COc1nc(-c2cccc(-c3cccc(-c4cc5c(c(OC)n4)[C@H](N4CC6(CN(C(C)=O)C6)C4)CC5)c3Cl)c2Cl)cnc1CNC[C@@H]1CCC(=O)N1 (single isomer, unassigned) [Compound D-17]	≤ 10		10 to 100
COc1nc(-c2cccc(-c3cccc(-c4cc5c(c(OC)n4)[C@@H](N4CC6(CCC(=O)N6)C4)CC5)c3Cl)c2Cl)cnc1CN1CC2(C1)CN(C(C)=O)C2 (single isomer, unassigned) [Compound D-14]	≤ 10		≤ 10
COc1nc(-c2cccc(-c3cccc(-c4cc5c(c(OC)n4)C(N4CC6(CN(C(C)=O)C6)C4)CC5)c3Cl)c2Cl)cnc1CN1CC2(CCC(=O)N2)C1 (stereo not shown) [Compound C-11]	≤ 10		10 to 100
COc1nc(-c2cccc(-c3cccc(-c4cc5c(c(OC)n4)[C@H](N4CC(C(=O)O)C4)CC5)c3Cl)c2Cl)cnc1CN1C[C@@H](O)[C@@H]1C (single isomer, unassigned) [Compound H-6]	≤ 10		100 to 1000
COc1nc(-c2cccc(-c3cccc(-c4cc5c(c(OCc6ccccn6)n4)C(NC[C@@H]4CCC(=O)N4)CC5)c3Cl)c2Cl)cnc1CN1CC2(CCC(=O)N2)C1 (stereo partly shown) [Compound C-15]	≤ 10		10 to 100
COc1nc(-c2cccc(-c3cccc(-c4cc5c(c(OC)n4)[C@H](NC[C@@H]4CCC(=O)N4)CO5)c3Cl)c2Cl)cc(C)c1CN1CC2(C1)CN(C(C)=O)C2 (single isomer, unassigned) [Compound E-5]	≤ 10		
COc1cc(-c2cccc(-c3cccc(-c4cnc(CN5CC6(CCC(=O)N6)C5)c(OC)n4)c3Cl)c2Cl)cc2c1C[C@@H](N1CC(O)C1)C2 (single isomer, unassigned) [Compound A-10]	≤ 10	172	10 to 100
COc1nc(-c2cccc(-c3cccc(-c4cc5c(c(OC)n4)[C@@H](NC[C@@H]4CCC(=O)N4)CC5)c3Cl)c2Cl)cnc1CN1CC(F)C1 [Compound D-4]	≤ 10		10 to 100
CCOC(=O)CN[C@@H]1CCc2cc(-c3cccc(-c4cccc(-c5cnc(CN6CC7(CCC(=O)N7)C6)c(OC)n5)c4Cl)c3Cl)cc(OC)c21 (single isomer, unassigned) [Compound A-2]	≤ 10	85	100 to 1000
COc1nc(-c2cccc(-c3cccc(-c4cc5c(c(OC)n4)[C@@H](N4CC6(CN(C(C)=O)C6)C4)CC5)c3Cl)c2Cl)cnc1CN1CC2(C1)CN(C(C)=O)C2 (single isomer, unassigned) [Compound D-18]	≤ 10		> 10000
COc1nc(-c2cccc(-c3cccc(-c4cc5c(c(OC)n4)[C@@H](NC[C@@H]4CCC(=O)N4)CO5)c3Cl)c2Cl)cc(C)c1CN1CC2(C1)CN(C(C)=O)C2 (single isomer, unassigned) [Compound E-4]	≤ 10		≤ 10
COc1nc(-c2cccc(-c3cccc(-c4cc5c(c(OC)n4)C(N4CCC[C@H](C(=O)O)C4)CC5)c3Cl)c2Cl)cnc1CN1CC(O)C1 (stereo partly shown) [Compound F-2]	≤ 10		10 to 100
COc1nc(-c2cccc(-c3cccc(-c4cc5c(c(OC)n4)[C@@H](N4CC6(CN(C(C)=O)C6)C4)CC5)c3Cl)c2Cl)cnc1CNC[C@@H]1CCC(=O)N1 (single isomer, unassigned) [Compound D-16]	≤ 10		
COc1cc(-c2cccc(-c3cccc(-c4cnc(CN5CC6(CCC(=O)N6)C5)c(OC)n4)c3Cl)c2Cl)cc2c1C[C@H](N1CC(O)C1)C2 (single isomer, unassigned) [Compound A-11]	≤ 10	84	1000 to 10000
COc1nc(-c2cccc(-c3cccc(-c4cc5c(c(OC)n4)C(NC[C@H]4CCC(=O)N4)CC5)c3Cl)c2Cl)cnc1CN1CC2(CCC(=O)N2)C1 (stereo partly shown) [Compound C-7]	≤ 10		10 to 100

Compound	IC50 (PDL1/PD1) [nM]	Emax (PD-1/PD-L1 interaction) [%]	EC50 (PD-1/PD-L1 interaction) [nM]
COc1nc(-c2cccc(-c3cccc(-c4cc5c(c(OC)n4)[C@@H](NC[C@@H]4CCC(=O)N4)CC5)c3Cl)c2Cl)cnc1CN1C[C@@H](O)[C@@H]1C [Compound D-13]	≤ 10		≤ 10
COc1nc(-c2cccc(-c3cccc(-c4cc5c(c(OC)n4)[C@@H](NC[C@@H]4CCC(=O)N4)CC5)c3Cl)c2Cl)ccc1CN1CC2(CCC(=O)N2)C1 [Compound E-3]	≤ 10		≤ 10
CCOC(=O)C1CN([C@@H]2CCc3cc(-c4cccc(-c5cccc(-c6cnc(CN7C[C@@H](O)[C@@H]7C)c(OC)n6)c5Cl)c4Cl)nc(OC)c32)C1 (single isomer, unassigned) [Compound G-4]			1000 to 10000
COc1cc(-c2cccc(-c3cccc(-c4cnc(CN5CC6(CCC(=O)N6)C5)c(OC)n4)c3Cl)c2Cl)cc2c1C[C@H](N1CC3(CCC(=O)N3)C1)C2 (single isomer, unassigned) [Compound A-13]	≤ 10	58	1000 to 10000
CCOC(=O)C1CN([C@@H]2CCc3cc(-c4cccc(-c5cccc(-c6cnc(CN7CC(O)C7)c(OC)n6)c5Cl)c4Cl)nc(OC)c32)C1 (single isomer, unassigned) [Compound G-2]	≤ 10		
COCCN1CCc2c(cc(-c3cccc(-c4cccc(-c5cnc(CN6CC7(CCC(=O)N7)C6)c(OC)n5)c4Cl)c3Cl)nc2OC)C1 [Compound K-2]			10 to 100
COc1nc(-c2cccc(-c3cccc(-c4cc5c(c(OC)n4)CCN(CC(=O)O)C5)c3Cl)c2Cl)cnc1CN1CC(O)C1 [Compound J-1]			10 to 100
COc1nc(-c2cccc(-c3cccc(-c4cc5c(c(OC)n4)[C@H](NC[C@@H]4CCC(=O)N4)CC5)c3Cl)c2Cl)cnc1CN1CCCC1 [Compound D-12]	≤ 10		
COc1nc(-c2cccc(-c3cccc(-c4cc5c(c(OCC(C)C)n4)C(NC[C@@H]4CCC(=O)N4)CC5)c3Cl)c2Cl)cnc1CN1CC2(CCC(=O)N2)C1 (stereo partly shown) [Compound C-13]			10 to 100
COc1nc(-c2cccc(-c3cccc(-c4cc5c(c(OC)n4)[C@@H](NC[C@@H]4CCC(=O)N4)CC5)c3Cl)c2Cl)cnc1CN1CC2(CCC(=O)N2)C1 [Compound C-1]			≤ 10
COc1nc(-c2cccc(-c3cccc(-c4cc5c(c(OC)n4)[C@@H](NC[C@@H]4CCC(=O)N4)CC5)c3Cl)c2Cl)cc(C)c1CN1CC2(C1)CN(C(C)=O)C2 [Compound E-2]			≤ 10
CCOC(=O)CN1CCc2c(cc(-c3cccc(-c4cccc(-c5cnc(CN6CC(O)C6)c(OC)n5)c4Cl)c3Cl)nc2OC)C1 [Compound I-1]			100 to 1000
COc1nc(-c2cccc(-c3cccc(-c4cc5c(c(OC)n4)[C@@H](NC[C@@H]4CCC(=O)N4)CC5)c3Cl)c2Cl)ccc1CNC[C@@H]1CCC(=O)N1 [Compound E-1]			≤ 10
COc1nc(-c2cccc(-c3cccc(-c4cc5c(c(OC)n4)C(N4CCC[C@@H](C(=O)O)C4)CC5)c3Cl)c2Cl)cnc1CN1CC(O)C1 (stereo partly shown) [Compound F-1]			10 to 100
COc1nc(-c2cccc(-c3cccc(-c4cc5c(c(OC)n4)CCN(C[C@@H]4CCC(=O)N4)C5)c3Cl)c2Cl)cnc1CN1CC2(CCC(=O)N2)C1 [Compound K-1]			10 to 100
COc1nc(-c2cccc(-c3cccc(-c4cc5c(c(OC)n4)[C@@H](NC[C@@H]4CCC(=O)N4)CC5)c3Cl)c2Cl)cnc1CN1CC2(C1)CN(C(C)=O)C2 [Compound D-1]			≤ 10
CCOC(=O)C1CN([C@H]2CCc3cc(-c4cccc(-c5cccc(-c6cnc(CN7CC(O)C7)c(OC)n6)c5Cl)c4Cl)nc(OC)c32)C1 [Compound G-1]			10 to 100
CCOC(=O)CN1CCc2c(cc(-c3cccc(-c4cccc(-c5cnc(CN6CC(O)(C(F)(F)F)C6)c(OC)n5)c4Cl)c3Cl)nc2OC)C1 [Compound I-3]			1000 to 10000
COc1nc(-c2cccc(-c3cccc(-c4cc5c(c(OC)n4)[C@@H](N4CC(C(=O)O)C4)CC5)c3Cl)c2Cl)cnc1CN1CC(O)C1 [Compound H-1]			10 to 100
